Data published in US20050228180A1, “Alpha, omega-dicarboximide derivatives as useful uro-selective a1a adrenoceptor blockers” (priority 2002, published 2005).
Where a name gives a salt, the structure may show the parent alone.

Legend:
α1B adrenoceptor = biological target: T1, α1B adrenoceptor (Rattus norvegicus, UniProt P15823); test: Radioligand binding, [3H] prazosin displacement, rat liver membranes; details: read-out: Affinity (Ki) α1B (Rat Liver)
T1 construct: from tissue; host or cells: rat liver membranes
T1 sequence (P15823 1-515): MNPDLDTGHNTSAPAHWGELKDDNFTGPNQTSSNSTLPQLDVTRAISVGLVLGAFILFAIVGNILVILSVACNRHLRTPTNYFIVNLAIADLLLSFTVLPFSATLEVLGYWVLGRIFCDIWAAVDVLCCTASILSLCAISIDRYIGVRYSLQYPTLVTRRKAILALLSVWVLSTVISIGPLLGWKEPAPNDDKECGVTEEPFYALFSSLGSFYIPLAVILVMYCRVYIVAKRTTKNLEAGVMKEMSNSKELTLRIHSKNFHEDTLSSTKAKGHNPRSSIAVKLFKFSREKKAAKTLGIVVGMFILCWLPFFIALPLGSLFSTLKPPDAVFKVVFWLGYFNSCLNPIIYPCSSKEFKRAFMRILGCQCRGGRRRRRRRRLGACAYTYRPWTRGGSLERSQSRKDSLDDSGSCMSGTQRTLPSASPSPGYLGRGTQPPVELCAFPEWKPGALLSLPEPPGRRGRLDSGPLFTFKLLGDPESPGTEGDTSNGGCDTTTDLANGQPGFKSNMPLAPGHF
Experimental: (§1) Receptor binding assays were performed using native a-adrenoceptors. The affinity of different compounds for α1A and α1B adrenoceptor subtypes was evaluated by studying their ability to displace specific [^3H] prazosin binding from the membranes of rat submaxillary and liver respectively (Michel et al., Br J Pharmacol, 1989: 98:883). The binding assays were performed according to U+Prichard et al. (Eur J Pharmacol, 1978; 50:87 with minor modifications.
(§2) Submaxillary glands were isolated immediately after sacrifice. The liver was perfused with buffer (Tris HCl 50 mM, NaCl 100 mM, 10 mM EDTA pH 7.4). The tissues were homogenised in 10 volumes of buffer (Tris HCl 50 mM, NaCl 100 mM, 10 mM EDTA pH 7.4). The homogenate was filtered through two layers of wet gauge and filtrate was centrifuged at 500 g for 10 min. The supernatant was subsequently centrifuged at 40,000 g for 45 min. The pellet thus obtained was resuspended in the same volume of assay buffer (Tris HCl 50 mM, 5 mM EDTA pH 7.4) and was stored at −70° C. until the time of assay.
(§3) The membrane homogenates (150-250 μg protein) were incubated in 250 μl of assay buffer (Tris HCl 50 mM, EDTA 5 mM, pH 7.4) at 24-25° C. for 1 hour. Non specific binding was determined in the presence of 300 nM prazosin. The incubation was terminated by vacuum filtration over GF/B fibre filters. The filters were then washed with ice cold 50 mM Tris HCl buffer (pH 7.4). The filtermats were dried and bound radioactivity retained on filters was counted. The IC50 and Kd were estimated by using the non-linear curve-fitting program using G Pad Prism software. The value of inhibition constant Ki was calculated from competitive binding studies by using Cheng & Prusoff equation (Cheng & Prusoff, Biochem Pharmacol, 1973, 22: 3099-3108), Ki=IC50/(1+L/Kd) where L is the concentration of [^3H] prazosin used in the particular experiment (Table 1).

α1A adrenoceptor = biological target: T2, α1A adrenoceptor (Rattus norvegicus, UniProt P43140); test: Radioligand binding, [3H] prazosin displacement, rat submaxillary membranes; details: for Ki: [3H] prazosin displacement, rat submaxillary membranes, read-out: Affinity (Ki) α1A (Rat Submaxillary); for α1B/α1A: ratio of binding affinities, rat liver / rat submaxillary
T2 construct: from tissue; host or cells: rat submaxillary gland membranes
T2 sequence (P43140 1-466): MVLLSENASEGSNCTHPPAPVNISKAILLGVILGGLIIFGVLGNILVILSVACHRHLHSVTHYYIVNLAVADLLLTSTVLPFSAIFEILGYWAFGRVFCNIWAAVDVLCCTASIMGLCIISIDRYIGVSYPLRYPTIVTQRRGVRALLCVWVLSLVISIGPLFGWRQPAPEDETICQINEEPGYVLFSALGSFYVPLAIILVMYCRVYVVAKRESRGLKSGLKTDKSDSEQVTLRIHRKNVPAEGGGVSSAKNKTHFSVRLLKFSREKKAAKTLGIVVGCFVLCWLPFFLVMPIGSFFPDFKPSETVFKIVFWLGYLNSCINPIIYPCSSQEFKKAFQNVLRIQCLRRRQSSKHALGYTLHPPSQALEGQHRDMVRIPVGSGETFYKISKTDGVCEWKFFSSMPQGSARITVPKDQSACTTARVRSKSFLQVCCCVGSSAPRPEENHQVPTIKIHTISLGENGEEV
Experimental: as §1, §2, §3

Ki (α1B adrenoceptor) [nM] | Ki (α1A adrenoceptor) [nM] | α1B/α1A (α1A adrenoceptor) | Compound
334 | 322 | 1 | COc1ccccc1N1CCN(CCCN2C(=O)C3C(c4ccccc4)C=CC(c4ccccc4)C3C2=O)CC1.Cl (stereo not drawn) [Compound No. 78, 2-[3-{4-(2-Methoxyphenyl)piperazin-1-yl}propyl]-4,7-diphenyl-3a,4,7,7a-tetrahydro-1H-isoindole-1,3(2H)-dione hydrochloride]
71 | 2.3 | 31 | COC1=C(OC)CC2C(=O)N(CCCN3CCN(c4ccccc4OC(C)C)CC3)C(=O)C2C1 (stereo not drawn) [Compound No. 75, 2-[3-{4-(2-Isopropoxyphenyl)piperazin-1-yl}propyl]-5,6-dimethoxy-3a,4,7,7a-tetrahydro-1H-isoindole-1,3 (21H)-dione hydrochloride]
4920 | 6750 | 0.7 | O=C1CCCC(=O)N1CCC[N+]1([O-])CCN(c2ccccc2O)CC1 [Compound No. 70, 1-[4-(2-Hydroxyphenyl)piperazin-1-yl-1-N-oxide]-3-(2,6-dioxopiperidin-1-yl]propane]
> 10000 | > 1000 | 1 | CC(C)Oc1ccccc1N1CCN(CCCN2C(=O)C3CC=CCC3C2=O)C(=O)C1=O (stereo not drawn) [Compound No. 71, 2-[3-{4-(2-Isopropoxyphenyl)-2,3-dioxopiperazin-1-yl}-propyl]-3a,4,7,7a-tetrahydro-1H-isoindole-1,3(2H)-dione]
> 1000 | > 1000 | 1 | CC(C)Oc1ccccc1N1CC[N+]([O-])(CC(O)CN2C(=O)C3CC=CCC3C2=O)CC1 (stereo not drawn) [Compound No. 65, 2-[3-{4-(2-Isopropoxyphenyl)piperazin-1-yl,1-N-oxide}2-hydroxypropyl]-3a,4,7,7a-tetrahydro-1H-isoindole-1,3(2H)-dione]
192 | 1.4 | 137 | COC1CC2C(=O)N(CCCN3CCN(c4ccccc4OC(C)C)CC3)C(=O)C2CC1OC.Cl (stereo not drawn) [Compound No. 76, 2-[3-{4-(2-Isopropoxyphenyl)piperazin-1-yl}propyl]-5,6-dimethoxy-3a,4,5,6,7,7a-hexahydro-1H-isoindole-1,3(2H)-dione hydrochloride]
48 | 2.3 | 21 | CC(C)Oc1ccccc1N1CCN(CCCN2C(=O)C3=CC=CCC3C2=O)CC1.Cl (stereo not drawn) [Compound No. 59, 2-[3-{4-(2-Isopropoxyphenyl)piperazin-1-yl}propyl]-7,7a-dihydro-1H-isoindole-1,3(2H)-dione hydrochloride]

The remaining lines, values behind:

Compound | Ki (α1B adrenoceptor) [nM] | Ki (α1A adrenoceptor) [nM] | α1B/α1A (α1A adrenoceptor)
CCOc1ccc(O)cc1N1CCN(CCCN2C(=O)C3CC=CCC3C2=O)CC1 (stereo not drawn) [Compound No. 24, 2-[3-{4-(2-Ethoxy-5-hydroxyphenyl)piperazin-1-yl}propyl]-3a,4,7,7a-tetrahydro-1H-isoindole-1,3-(2H)-dione hydrochloride] | 495 | 5.9 | 84
COc1ccccc1NCCNCCCN1C(=O)CCCC1=O.Cl [Compound No. 57, 1-[N—N-{N′-(2-Methoxyphenyl)aminoethyl}]-3-(2,6-dioxopiperidin-1-yl)aminopropane hydrochloride] | > 1000 | > 1000 | 1
Cl.O=C1C2CC=CCC2C(=O)N1CCN1CCN(c2ccccc2OCC(F)(F)F)CC1 (stereo not drawn) [Compound No. 16, 2-[2-{4-(2-(2,2,2-Trifluoroethoxy)phenyl)piperazin-1-yl}ethyl]-3a,4,7,7a-tetrahydro-1H-isoindole-1,3(2H)-dione hydrochloride] | 267 | 19 | 14
CC(C)Oc1c(O)cccc1N1CCN(CCCN2C(=O)CCCC2=O)CC1.Cl [Compound No. 38, 1-[4-(2-Isopropoxy-3-hydroxyphenyl)piperazin-1-yl]-3-(2,6-dioxopiperidin-1-yl)propane hydrochloride] | 760 | 141 | 5
CC(C)Oc1cccc(O)c1N1CCN(CCCN2C(=O)CCCC2=O)CC1 [Compound No. 37, 1-[4-(2-Isopropoxy-6-hydroxyphenyl)piperazin-1-yl]-3-(2,6-dioxopiperdin-1-yl)propane hydrochloride] | > 1000 | 462 | >2
CC(C)Oc1ccccc1NCCN(CCO)CCCN1C(=O)[C@H]2CC=CC[C@H]2C1=O [Compound No. 48, 2-[N-[{N′-(2-Isopropoxyphenyl)aminoethyl}hydroxyethyl]aminopropyl]-3a,4,7,7a-tetrahydro-1H-isoindole-1,3(2H)-dione hydrochloride] | > 1000 | 91 | >11
CC(C)Oc1cccc(O)c1N1CCN(CCCN2C(=O)C3CC=CCC3C2=O)CC1 (stereo not drawn) [Compound No. 27, 2-[3-{4-(2-isopropoxy-6-hydroxyphenyl)piperazin-1-yl}propyl]-3a,7,7a-tetrahydro-1H-isoindole-1,3(2H)-dione hydrochloride] | > 5000 | 306 | 16
CC(=O)N(CCNCCCN1C(=O)C2CC=CCC2C1=O)c1ccccc1OC(C)C.Cl (stereo not drawn) [Compound No. 47, 2-[N-{N′-(2-Isopropoxyphenyl)acetylaminoethyl}aminopropyl]-3a,4,7,7a-tetrahydro-1H-isoindole-1,3(2H)-dione hydrochloride] | > 1000 | 299 | >3
O=C1C2CC=CCC2C(=O)N1CCCN1CCN(c2ccccc2-c2ccccc2)CC1 (stereo not drawn) [Compound No. 45, 2-[3-{4-(2-Biphenyl)piperazin-1-yl}propyl]-3a,4,7,7a-tetrahydro-1H-isoindole-1,3(2H)-dione hydrochloride] | 120 | 8.6 | 14
CC(C)Oc1ccccc1NCCN(C=O)CCCN1C(=O)C2CC=CCC2C1=O (stereo not drawn) [Compound No. 53, 2-[N-{N′-(2-Isopropoxyphenyl)aminoethyl}formylaminopropyl]-3a,4,7,7a-tetrahydro-1H-isoindole-1,3(2H)-dione] | > 15000 | 74 | >203
1-[4-(2-Ethoxyphenyl)piperazin-1-yl]-3-(2,6-dioxopiperadin-1-yl)ethane hydrochloride [compound 05] | 1380 | 70 | 20
Cl.O=C1CCCC(=O)N1CC(O)CN1CCN(c2ccccc2O)CC1 (stereo not drawn) [Compound No. 44, 1-[4-(2-hydroxyphenyl)piperazin-1-yl]-2-hydroxy-3-(2,6-dioxopiperidin-1-yl]propane hydrochloride] | 1740 | 594 | 3
COc1ccccc1NCCNCCCN1C(=O)CCCC1=O [Compound No. 56, 1-[N-{N′-(2-Methoxyphenyl)aminoethyl}]-3-(2,6-dioxopiperidin-1-yl)aminopropane hydrochloride] | 992 | > 100 | >10
CC(C)Oc1ccccc1NCCNCCCN1C(=O)[C@H]2CC=CC[C@H]2C1=O [Compound No. 42, 2-[N-{N′-(2-Isopropoxyphenyl)aminoethyl}aminopropyl]-3a,4,7,7a-tetrahydro-1H-isoindole-1,3(2H)-dione hydrochloride] | 781 | 19 | 41
